# Values quoted from earlier work in PubChem BioAssay AID1259409 (Chemical Carcinogenesis Research Information System (CCRIS), 2018).
# System: rodent chemically induced tumor inhibition, incidence and multiplicity
# Assay: CCRIS tumor inhibitor studies
# Conditions: Dose [Inhibitor]: 0, Route [Inhibitor]: ORAL
structure (smiles),measurement,setting,value
Oc1ccccc1O,"tumour outcome (control, treated, inhibition, significance)","Carcinogen: N-BIS(2-HYDROXYPROPYL)NITROSAMINE, 53609-64-6, 0.8% IN DIET FOR 30 WK BEGINNING POST CARCINOGEN TREATMENT (STUDY DURATION: 32 WK), Species: RAT, Strain/Sex: F344/MALE, Target Tissue: Type of Lesion: KIDNEY: PAPILLOMA OR TRANSITIONAL CELL CARCINOMA, Dose [Carcinogen]: 0.1% IN DRINKING WATER FOR 2 WK, Promoter: NONE USED","10%, 10%, 0%, not significant"
same,"tumour outcome (control, treated, inhibition, significance)","Carcinogen: N-BIS(2-HYDROXYPROPYL)NITROSAMINE, 53609-64-6, 0.8% IN DIET FOR 30 WK BEGINNING POST CARCINOGEN TREATMENT (STUDY DURATION: 32 WK), Species: RAT, Strain/Sex: F344/MALE, Target Tissue: Type of Lesion: LUNG: ADENOMA, Dose [Carcinogen]: 0.1% IN DRINKING WATER FOR 2 WK, Promoter: NONE USED","100%, 95%, 5%, not calculated"
same,"tumour outcome (control, treated, inhibition, significance)","Carcinogen: N-BIS(2-HYDROXYPROPYL)NITROSAMINE, 53609-64-6, 0.8% IN DIET FOR 30 WK BEGINNING POST CARCINOGEN TREATMENT (STUDY DURATION: 32 WK), Species: RAT, Strain/Sex: F344/MALE, Target Tissue: Type of Lesion: LUNG: CARCINOMA, Dose [Carcinogen]: 0.1% IN DRINKING WATER FOR 2 WK, Promoter: NONE USED","45%, 20%, 56%, not calculated"
same,outcome,"Carcinogen: N-BIS(2-HYDROXYPROPYL)NITROSAMINE, 53609-64-6, 0.8% IN DIET FOR 30 WK BEGINNING POST CARCINOGEN TREATMENT (STUDY DURATION: 32 WK), Species: RAT, Strain/Sex: F344/MALE, Target Tissue: Type of Lesion: THYROID: ADENOMA, Dose [Carcinogen]: 0.1% IN DRINKING WATER FOR 2 WK, Promoter: NONE USED","5%, 5%, 0, not significant"
same,"tumour outcome (control, treated, inhibition, significance)","Carcinogen: N-BIS(2-HYDROXYPROPYL)NITROSAMINE, 53609-64-6, 0.8% IN DIET FOR 30 WK BEGINNING POST CARCINOGEN TREATMENT (STUDY DURATION: 32 WK), Species: RAT, Strain/Sex: F344/MALE, Target Tissue: Type of Lesion: THYROID: CARCINOMA, Dose [Carcinogen]: 0.1% IN DRINKING WATER FOR 2 WK, Promoter: NONE USED","20%, 5%, 75%, not calculated"
same,"tumour outcome (control, treated, inhibition, significance)","Carcinogen: N-NITROSOBIS(2-OXOPROPYL)AMINE, 60599-38-4, 0.75% IN DIET FOR 16 WK BEGINNING 2 WK POST CARCINOGEN TREATMENT (STUDY DURATION: 20 WK), Species: HAMSTER, Strain/Sex: SYRIAN/FEMALE, Target Tissue: Type of Lesion: GALL BLADDER: ADENOMA, Dose [Carcinogen]: 70 MG/KG IN SALINE FOLLOWED 2 WK LATER BY SECOND TREATMENT","9/18 (50%), 7/10 (70%), -40%, not calculated"
same,"tumour outcome (control, treated, inhibition, significance)","Carcinogen: N-NITROSOBIS(2-OXOPROPYL)AMINE, 60599-38-4, 0.75% IN DIET FOR 16 WK BEGINNING 2 WK POST CARCINOGEN TREATMENT (STUDY DURATION: 20 WK), Species: HAMSTER, Strain/Sex: SYRIAN/FEMALE, Target Tissue: Type of Lesion: LIVER: CHOLANGIOCARCINOMA, Dose [Carcinogen]: 70 MG/KG IN SALINE FOLLOWED 2 WK LATER BY SECOND TREATMENT","16/18 (89%), 8/10 (80%), 10%, not calculated"
same,"tumour outcome (control, treated, inhibition, significance)","Carcinogen: N-NITROSOBIS(2-OXOPROPYL)AMINE, 60599-38-4, 0.75% IN DIET FOR 16 WK BEGINNING 2 WK POST CARCINOGEN TREATMENT (STUDY DURATION: 20 WK), Species: HAMSTER, Strain/Sex: SYRIAN/FEMALE, Target Tissue: Type of Lesion: LIVER: NEOPLASTIC NODULE, Dose [Carcinogen]: 70 MG/KG IN SALINE FOLLOWED 2 WK LATER BY SECOND TREATMENT","18/18 (100%), 10/10 (100%), 0%, not significant"
same,"tumour outcome (control, treated, inhibition, significance)","Carcinogen: N-NITROSOBIS(2-OXOPROPYL)AMINE, 60599-38-4, 0.75% IN DIET FOR 16 WK BEGINNING 2 WK POST CARCINOGEN TREATMENT (STUDY DURATION: 20 WK), Species: HAMSTER, Strain/Sex: SYRIAN/FEMALE, Target Tissue: Type of Lesion: PANCREAS: ADENOCARCINOMA, Dose [Carcinogen]: 70 MG/KG IN SALINE FOLLOWED 2 WK BY SECOND TREATMENT","14/18 (78%), 6/10 (60%), 23%, not calculated"
same,"tumour outcome (control, treated, inhibition, significance)","Carcinogen: N-NITROSOBIS(2-OXOPROPYL)AMINE, 60599-38-4, 1.5% IN DIET FOR 16 WK BEGINNING 2 WK POST CARCINOGEN TREATMENT (STUDY DURATION: 20 WK), Species: HAMSTER, Strain/Sex: SYRIAN/FEMALE, Target Tissue: Type of Lesion: GALL BLADDER: ADENOMA, Dose [Carcinogen]: 70 MG/KG IN SALINE FOLLOWED 2 WK LATER BY SECOND TREATMENT","9/18 (50%), 10/17 (59%), -18%, not calculated"
same,"tumour outcome (control, treated, inhibition, significance)","Carcinogen: N-NITROSOBIS(2-OXOPROPYL)AMINE, 60599-38-4, 1.5% IN DIET FOR 16 WK BEGINNING 2 WK POST CARCINOGEN TREATMENT (STUDY DURATION: 20 WK), Species: HAMSTER, Strain/Sex: SYRIAN/FEMALE, Target Tissue: Type of Lesion: GALL BLADDER: CARCINOMA, Dose [Carcinogen]: 70 MG/KG IN SALINE FOLLOWED 2 WK LATER BY SECOND TREATMENT","1/18 (6%), 2/17 (12%), -100%, not calculated"
same,"tumour outcome (control, treated, inhibition, significance)","Carcinogen: N-NITROSOBIS(2-OXOPROPYL)AMINE, 60599-38-4, 1.5% IN DIET FOR 16 WK BEGINNING 2 WK POST CARCINOGEN TREATMENT (STUDY DURATION: 20 WK), Species: HAMSTER, Strain/Sex: SYRIAN/FEMALE, Target Tissue: Type of Lesion: LIVER: CHOLANGIOCARCINOMA, Dose [Carcinogen]: 70 MG/KG IN SALINE FOLLOWED 2 WK LATER BY SECOND TREATMENT","16/18 (89%), 11/17 (65%), 27%, not calculated"
same,"tumour outcome (control, treated, inhibition, significance)","Carcinogen: N-NITROSOBIS(2-OXOPROPYL)AMINE, 60599-38-4, 1.5% IN DIET FOR 16 WK BEGINNING 2 WK POST CARCINOGEN TREATMENT (STUDY DURATION: 20 WK), Species: HAMSTER, Strain/Sex: SYRIAN/FEMALE, Target Tissue: Type of Lesion: LIVER: NEOPLASTIC NODULE, Dose [Carcinogen]: 70 MG/KG IN SALINE FOLLOWED 2 WK LATER BY SECOND TREATMENT","100%, 100%, 0%, not significant"
same,"tumour outcome (control, treated, inhibition, significance)","Carcinogen: N-NITROSOBIS(2-OXOPROPYL)AMINE, 60599-38-4, 1.5% IN DIET FOR 16 WK BEGINNING 2 WK POST CARCINOGEN TREATMENT (STUDY DURATION: 20 WK), Species: HAMSTER, Strain/Sex: SYRIAN/FEMALE, Target Tissue: Type of Lesion: PANCREAS: ADENOCARCINOMA, Dose [Carcinogen]: 70 MG/KG IN SALINE FOLLOWED 2 WK LATER BY SECOND TREATMENT","14/18 (78%), 13/17 (76%), 3%, not calculated"
